Laboratory results as given in publication PMC5218480 (PLoS ONE, 2017).

Tested on: MV-4-11 cells
Assay: Gene expression microarray analysis (Affymetrix PrimeView) and GSEA
Type: cell-based, human
Parameters: RFU PODN (11730768_x_at) / Fold change /veh PODN (11730768_x_at) / RFU LINC00158 (11744669_a_at) / Fold change /veh LINC00158 (11744669_a_at) / RFU DUSP10 (11751237_a_at) / Fold change /veh DUSP10 (11751237_a_at) / RFU ID3 (11757404_x_at) / Fold change /veh ID3 (11757404_x_at) / RFU PLEKHG5 (11737974_s_at) / Fold change /veh PLEKHG5 (11737974_s_at) / RFU LRRC4B (11730491_at) / Fold change /veh LRRC4B (11730491_at) / RFU GIMAP4 (11747438_a_at) / Fold change /veh GIMAP4 (11747438_a_at) / RFU KRT8 (11758183_x_at) / Fold change /veh KRT8 (11758183_x_at) / RFU CNN1 (11734310_a_at) / Fold change /veh CNN1 (11734310_a_at) / RFU VPS37D (11726825_at) / Fold change /veh VPS37D (11726825_at) / RFU C10orf10 (11716522_x_at) / Fold change /veh C10orf10 (11716522_x_at) / RFU KIR2DL2 /// KIR2DL4 /// KIR2DL5A /// KIR2DL5B /// KIR2DS1 /// KIR2DS2 /// KIR2DS3 /// KIR2DS4 /// KIR3DL3 /// KIR3DL3 /// KIR3DS1 (11738374_at) / Fold change /veh KIR2DL2 /// KIR2DL4 /// KIR2DL5A /// KIR2DL5B /// KIR2DS1 /// KIR2DS2 /// KIR2DS3 /// KIR2DS4 /// KIR3DL3 /// KIR3DL3 /// KIR3DS1 (11738374_at) / RFU C1QL1 (11718748_at) / Fold change /veh C1QL1 (11718748_at) / RFU TMPRSS4 (11747572_a_at) / Fold change /veh TMPRSS4 (11747572_a_at) / RFU HAMP (11756126_x_at) / Fold change /veh HAMP (11756126_x_at) / RFU RNFT2 (11725882_a_at) / Fold change /veh RNFT2 (11725882_a_at) / RFU NR4A2 (11747474_a_at) / Fold change /veh NR4A2 (11747474_a_at) / RFU ABCC12 (11746883_a_at) / Fold change /veh ABCC12 (11746883_a_at) / RFU TMEM136 (11760407_x_at) / Fold change /veh TMEM136 (11760407_x_at) / RFU CLDN22 /// WWC2 (11732394_at) / Fold change /veh CLDN22 /// WWC2 (11732394_at) / RFU HLA-DPB1 (11760878_x_at) / Fold change /veh HLA-DPB1 (11760878_x_at) / RFU SPINT1 (11716480_a_at) / Fold change /veh SPINT1 (11716480_a_at) / RFU GAP43 (11754022_s_at) / Fold change /veh GAP43 (11754022_s_at) / RFU A4GNT (11735810_at) / Fold change /veh A4GNT (11735810_at) / RFU PRB3 (11715151_x_at) / Fold change /veh PRB3 (11715151_x_at) / RFU TUBB4B (11761932_at) / Fold change /veh TUBB4B (11761932_at) / RFU CAPN14 (11732068_a_at) / Fold change /veh CAPN14 (11732068_a_at) / RFU TMCC2 (11721928_a_at) / Fold change /veh TMCC2 (11721928_a_at) / RFU IRGQ (11745062_a_at) / Fold change /veh IRGQ (11745062_a_at) / RFU FAM174B (11720279_a_at) / Fold change /veh FAM174B (11720279_a_at) / RFU TMPRSS4 (11748680_a_at) / Fold change /veh TMPRSS4 (11748680_a_at) / RFU FAM212B (11763350_a_at) / Fold change /veh FAM212B (11763350_a_at) / RFU PLEKHG5 (11743358_a_at) / Fold change /veh PLEKHG5 (11743358_a_at) / RFU ZSCAN30 (11745921_a_at) / Fold change /veh ZSCAN30 (11745921_a_at) / RFU CMKLR1 (11741424_a_at) / Fold change /veh CMKLR1 (11741424_a_at) / RFU LOC101060620 /// MAPK8IP1 (11723275_at) / Fold change /veh LOC101060620 /// MAPK8IP1 (11723275_at) / RFU SPTSSB (11747773_x_at) / Fold change /veh SPTSSB (11747773_x_at) / RFU PRSS12 (11739890_at) / Fold change /veh PRSS12 (11739890_at) / RFU BIN1 (11741810_x_at) / Fold change /veh BIN1 (11741810_x_at) / RFU WNT11 (11732464_a_at) / Fold change /veh WNT11 (11732464_a_at) / RFU C10orf10 (11716521_a_at) / Fold change /veh C10orf10 (11716521_a_at) / RFU C5orf56 (11738089_at) / Fold change /veh C5orf56 (11738089_at) / RFU CYB561 (11721691_x_at) / Fold change /veh CYB561 (11721691_x_at) / RFU ANKRD19P (11752326_a_at) / Fold change /veh ANKRD19P (11752326_a_at) / RFU OR2T12 /// OR2T33 /// OR2T8 (11738714_s_at) / Fold change /veh OR2T12 /// OR2T33 /// OR2T8 (11738714_s_at) / RFU VCAN (11748164_a_at) / Fold change /veh VCAN (11748164_a_at) / RFU JSRP1 (11732532_at) / Fold change /veh JSRP1 (11732532_at) / RFU KRTAP10-11 (11738290_x_at) / Fold change /veh KRTAP10-11 (11738290_x_at) / RFU MYO3A (11730013_a_at) / Fold change /veh MYO3A (11730013_a_at) / RFU EBF3 (11725865_a_at) / Fold change /veh EBF3 (11725865_a_at) / RFU CAMK2N1 (11719241_x_at) / Fold change /veh CAMK2N1 (11719241_x_at) / RFU C5orf56 (11738088_a_at) / Fold change /veh C5orf56 (11738088_a_at) / RFU OLFML3 (11715873_a_at) / Fold change /veh OLFML3 (11715873_a_at) / RFU LOC100653217 /// NTM (11731650_a_at) / Fold change /veh LOC100653217 /// NTM (11731650_a_at) / RFU MAPK11 (11762145_a_at) / Fold change /veh MAPK11 (11762145_a_at) / RFU FIZ1 (11724087_x_at) / Fold change /veh FIZ1 (11724087_x_at) / RFU OASL (11726364_x_at) / Fold change /veh OASL (11726364_x_at) / RFU SOX15 (11748057_x_at) / Fold change /veh SOX15 (11748057_x_at) / RFU CD79A (11719716_a_at) / Fold change /veh CD79A (11719716_a_at) / RFU HIST1H1D (11736915_at) / Fold change /veh HIST1H1D (11736915_at) / RFU CASKIN2 (11723855_a_at) / Fold change /veh CASKIN2 (11723855_a_at) / RFU LOC730098 (11760151_x_at) / Fold change /veh LOC730098 (11760151_x_at) / RFU OR4N2 (11742367_at) / Fold change /veh OR4N2 (11742367_at) / RFU PRRT2 (11749266_a_at) / Fold change /veh PRRT2 (11749266_a_at) / RFU SNX32 (11753110_a_at) / Fold change /veh SNX32 (11753110_a_at) / RFU CDHR5 (11726645_a_at) / Fold change /veh CDHR5 (11726645_a_at) / RFU RCAN1 (11760418_a_at) / Fold change /veh RCAN1 (11760418_a_at) / RFU FAM167A (11723789_a_at) / Fold change /veh FAM167A (11723789_a_at) / RFU FAM26E (11764081_at) / Fold change /veh FAM26E (11764081_at) / RFU ISYNA1 (11749810_s_at) / Fold change /veh ISYNA1 (11749810_s_at) / RFU ACY1 (11761880_at) / Fold change /veh ACY1 (11761880_at) / RFU 11764098_at / Fold change /veh 11764098_at / RFU SAMD14 (11745864_x_at) / Fold change /veh SAMD14 (11745864_x_at) / RFU NPB (11741838_a_at) / Fold change /veh NPB (11741838_a_at) / RFU TMPRSS6 (11731388_a_at) / Fold change /veh TMPRSS6 (11731388_a_at) / RFU KRTAP10-2 (11738614_at) / Fold change /veh KRTAP10-2 (11738614_at) / RFU ARHGAP8 /// PRR5-ARHGAP8 (11727945_x_at) / Fold change /veh ARHGAP8 /// PRR5-ARHGAP8 (11727945_x_at) / RFU KRTAP5-7 /// NADSYN1 (11734609_at) / Fold change /veh KRTAP5-7 /// NADSYN1 (11734609_at) / RFU RASL12 (11751679_a_at) / Fold change /veh RASL12 (11751679_a_at) / RFU CDKN2B (11736163_a_at) / Fold change /veh CDKN2B (11736163_a_at) / RFU PRF1 (11729649_at) / Fold change /veh PRF1 (11729649_at) / RFU, ZNF638 /// ZNF638-IT1 / Fold change vs veh, ZNF638 /// ZNF638-IT1 / RFU, PANK3 / Fold change vs veh, PANK3 / RFU, SH3YL1 / Fold change vs veh, SH3YL1 / RFU, ZEB2 / Fold change vs veh, ZEB2 / RFU, NRIP1 / Fold change vs veh, NRIP1 / RFU, PTTG1IP / Fold change vs veh, PTTG1IP / RFU, CAPN2 / Fold change vs veh, CAPN2 / RFU, MED14 / Fold change vs veh, MED14 / RFU, SNORA58 / Fold change vs veh, SNORA58 / RFU, C1orf63 / Fold change vs veh, C1orf63 / RFU, LRRFIP1 / Fold change vs veh, LRRFIP1 / RFU, NDUFAF7 / Fold change vs veh, NDUFAF7 / RFU, SLC12A2 / Fold change vs veh, SLC12A2 / RFU, IBTK / Fold change vs veh, IBTK / RFU, ESF1 / Fold change vs veh, ESF1 / Fold change vs veh, TMEM50B / RFU, TAOK1 / Fold change vs veh, TAOK1 / RFU, ACBD3 / Fold change vs veh, ACBD3 / RFU, TMA16 / Fold change vs veh, TMA16 / RFU, RWDD3 / Fold change vs veh, RWDD3 / RFU, BCAT1 / Fold change vs veh, BCAT1 / RFU, EDEM3 / Fold change vs veh, EDEM3 / RFU, TMEM33 / Fold change vs veh, TMEM33 / RFU, WDR75 / Fold change vs veh, WDR75 / RFU, AHCTF1 / Fold change vs veh, AHCTF1 / RFU, TFRC / Fold change vs veh, TFRC / RFU, ZDHHC17 / Fold change vs veh, ZDHHC17 / RFU, NOM1 / Fold change vs veh, NOM1 / RFU, ARL8B / Fold change vs veh, ARL8B / RFU, ZBTB11 / Fold change vs veh, ZBTB11 / RFU, TAMM41 / Fold change vs veh, TAMM41 / RFU, KIAA1704 /// LOC100996395 / Fold change vs veh, KIAA1704 /// LOC100996395 / RFU, ING1 / Fold change vs veh, ING1 / RFU, TRMT61B / Fold change vs veh, TRMT61B / RFU, FUBP3 / Fold change vs veh, FUBP3 / RFU, TP53 / Fold change vs veh, TP53 / RFU, TNKS2 / Fold change vs veh, TNKS2 / RFU, ZFP14 / Fold change vs veh, ZFP14 / RFU, ACTR2 / Fold change vs veh, ACTR2 / RFU, PPP3R1 / Fold change vs veh, PPP3R1 / RFU, PIK3R1 / Fold change vs veh, PIK3R1 / RFU, HNRNPA1 / Fold change vs veh, HNRNPA1 / RFU, RNF170 / Fold change vs veh, RNF170 / RFU, ZNF28 / Fold change vs veh, ZNF28 / RFU, RNGTT / Fold change vs veh, RNGTT / RFU, OGT / Fold change vs veh, OGT / RFU, BRD1 / Fold change vs veh, BRD1 / RFU, MARS / Fold change vs veh, MARS / RFU, ZNF655 / Fold change vs veh, ZNF655 / RFU, FAHD1 / Fold change vs veh, FAHD1 / RFU, BDP1 / Fold change vs veh, BDP1 / RFU, LRRCC1 / Fold change vs veh, LRRCC1 / RFU, ARID1A / Fold change vs veh, ARID1A / RFU, ZNF146 / Fold change vs veh, ZNF146 / RFU, ZNF330 / Fold change vs veh, ZNF330 / RFU, GPN3 / Fold change vs veh, GPN3 / RFU, C9orf123 / Fold change vs veh, C9orf123 / RFU, N4BP2L2 / Fold change vs veh, N4BP2L2 / RFU, ARFIP1 / Fold change vs veh, ARFIP1 / RFU, FAM179B / Fold change vs veh, FAM179B / RFU, BCL10 / Fold change vs veh, BCL10 / RFU, UHRF1BP1L / Fold change vs veh, UHRF1BP1L / RFU, BET1 / Fold change vs veh, BET1 / RFU, CNOT2 / Fold change vs veh, CNOT2 / RFU, ZNF268 / Fold change vs veh, ZNF268 / Fold change vs veh, ZNF507 / RFU, DGCR2 / Fold change vs veh, DGCR2 / RFU, WDSUB1 / Fold change vs veh, WDSUB1 / Fold change vs veh, HSP90B1 /// MIR3652 / RFU, ADSS / Fold change vs veh, ADSS / RFU, GK / Fold change vs veh, GK / RFU, ZNF148 / Fold change vs veh, ZNF148 / RFU, TAF9 / Fold change vs veh, TAF9 / RFU, SLC1A5 / Fold change vs veh, SLC1A5 / RFU, SLMO2 / Fold change vs veh, SLMO2 / RFU, ABCC4 / Fold change vs veh, ABCC4 / RFU, LOC101060439 /// RAP1B / Fold change vs veh, LOC101060439 /// RAP1B / RFU, RFX7 / Fold change vs veh, RFX7 / RFU, GTPBP10 / Fold change vs veh, GTPBP10 / RFU, CNEP1R1 / Fold change vs veh, CNEP1R1 / RFU, BIVM-ERCC5 /// ERCC5 / Fold change vs veh, BIVM-ERCC5 /// ERCC5 / RFU, ILF3 / Fold change vs veh, ILF3 / RFU 11762660_at / Fold change /veh 11762660_at / RFU VCAN (11757783_s_at) / Fold change /veh VCAN (11757783_s_at) / RFU DDX43 (11728927_at) / Fold change /veh DDX43 (11728927_at) / RFU KRT8 (11758188_x_at) / Fold change /veh KRT8 (11758188_x_at) / RFU NKD1 (11759106_at) / Fold change /veh NKD1 (11759106_at) / RFU SRD5A1 (11742802_a_at) / Fold change /veh SRD5A1 (11742802_a_at) / RFU TPSAB1 /// TPSB2 (11721975_s_at) / Fold change /veh TPSAB1 /// TPSB2 (11721975_s_at) / RFU GSTM3 (11746129_a_at) / Fold change /veh GSTM3 (11746129_a_at) / RFU IL23R (11737362_x_at) / Fold change /veh IL23R (11737362_x_at) / RFU TMEM51 (11727254_a_at) / Fold change /veh TMEM51 (11727254_a_at) / RFU PIWIL2 (11732686_x_at) / Fold change /veh PIWIL2 (11732686_x_at) / RFU ORM1 (11744905_x_at) / Fold change /veh ORM1 (11744905_x_at) / RFU CCDC152 (11743942_at) / Fold change /veh CCDC152 (11743942_at) / RFU ECM1 (11717891_a_at) / Fold change /veh ECM1 (11717891_a_at) / RFU IL23R (11748794_a_at) / Fold change /veh IL23R (11748794_a_at) / RFU TNFAIP8L3 (11732012_x_at) / Fold change /veh TNFAIP8L3 (11732012_x_at) / RFU MBOAT4 (11741988_at) / Fold change /veh MBOAT4 (11741988_at) / RFU 11764193_at / Fold change /veh 11764193_at / RFU TMEM53 (11763286_at) / Fold change /veh TMEM53 (11763286_at) / RFU MAGEB2 (11727129_at) / Fold change /veh MAGEB2 (11727129_at) / RFU TMEM200A (11744735_a_at) / Fold change /veh TMEM200A (11744735_a_at) / RFU CCDC152 (11751479_a_at) / Fold change /veh CCDC152 (11751479_a_at) / RFU FAM211A (11726209_a_at) / Fold change /veh FAM211A (11726209_a_at) / RFU RGS16 (11746705_a_at) / Fold change /veh RGS16 (11746705_a_at) / RFU VCAN (11755009_s_at) / Fold change /veh VCAN (11755009_s_at) / RFU RHOB (11743442_s_at) / Fold change /veh RHOB (11743442_s_at) / RFU RGS16 (11720943_a_at) / Fold change /veh RGS16 (11720943_a_at) / RFU RGS16 (11720944_at) / Fold change /veh RGS16 (11720944_at) / RFU, VPS4B / Fold change vs veh, VPS4B / RFU, CREB1 / Fold change vs veh, CREB1 / RFU, DNAJC13 / Fold change vs veh, DNAJC13 / RFU, GNAQ / Fold change vs veh, GNAQ / RFU, CDK5R1 / Fold change vs veh, CDK5R1 / RFU, ZRANB3 / Fold change vs veh, ZRANB3 / RFU, CUL4A / Fold change vs veh, CUL4A / RFU, CCNY / Fold change vs veh, CCNY / RFU, UFL1 / Fold change vs veh, UFL1 / RFU, COG3 / Fold change vs veh, COG3 / RFU, DIAPH2 / Fold change vs veh, DIAPH2 / RFU, SKA2 / Fold change vs veh, SKA2 / RFU, AFF3 / Fold change vs veh, AFF3 / RFU, LMF1 / Fold change vs veh, LMF1 / RFU, IPO11 / Fold change vs veh, IPO11 / RFU, DFFB / Fold change vs veh, DFFB / RFU, FOXP1 / Fold change vs veh, FOXP1 / RFU, CARD8 / Fold change vs veh, CARD8 / RFU, STRN3 / Fold change vs veh, STRN3 / RFU, ADK / Fold change vs veh, ADK / RFU, RASSF2 / Fold change vs veh, RASSF2 / RFU, WIPF1 / Fold change vs veh, WIPF1 / RFU, LARP1B / Fold change vs veh, LARP1B / RFU, RASA1 / Fold change vs veh, RASA1 / RFU, RB1 / Fold change vs veh, RB1 / RFU, PPFIA1 / Fold change vs veh, PPFIA1 / RFU, MAT2A / Fold change vs veh, MAT2A / RFU, CCT5 / Fold change vs veh, CCT5 / RFU, WDR92 / Fold change vs veh, WDR92 / RFU, CUX1 / Fold change vs veh, CUX1 / RFU, TTC7A / Fold change vs veh, TTC7A / RFU, TMEM135 / Fold change vs veh, TMEM135 / RFU, DEPTOR / Fold change vs veh, DEPTOR / RFU, CPM / Fold change vs veh, CPM / RFU, DNAJB6 / Fold change vs veh, DNAJB6 / RFU, CACNA2D3 / Fold change vs veh, CACNA2D3 / RFU, DTX4 / Fold change vs veh, DTX4 / RFU, TFCP2 / Fold change vs veh, TFCP2 / RFU, GMCL1 /// GMCL1P1 / Fold change vs veh, GMCL1 /// GMCL1P1 / RFU, AEBP2 / Fold change vs veh, AEBP2 / RFU, SNHG1 /// SNORD22 /// SNORD25 /// SNORD26 /// SNORD27 /// SNORD28 /// SNORD29 /// SNORD31 / Fold change vs veh, SNHG1 /// SNORD22 /// SNORD25 /// SNORD26 /// SNORD27 /// SNORD28 /// SNORD29 /// SNORD31 / Fold change (Aza/veh), C12orf56 (ProbeSet 11735607_a_at) / Fold change (ACY-1035/veh), C12orf56 (ProbeSet 11735607_a_at) / Fold change (Aza/veh), FGFR1OP (ProbeSet 11751329_s_at) / Fold change (ACY-1035/veh), FGFR1OP (ProbeSet 11751329_s_at) / Fold change (Aza/veh), VPS36 (ProbeSet 11739960_a_at) / Fold change (ACY-1035/veh), VPS36 (ProbeSet 11739960_a_at) / RFU SYPL1 (11715823_x_at) / Fold change /veh SYPL1 (11715823_x_at) / RFU IGFBP7 (11715501_s_at) / Fold change /veh IGFBP7 (11715501_s_at) / RFU REEP3 (11722064_at) / Fold change /veh REEP3 (11722064_at) / RFU IGLL1 (11728026_x_at) / Fold change /veh IGLL1 (11728026_x_at): dose or concentration left out as unconfirmed
Settings: ProbeSet 11725885_a_at; LIST B

SMILES: Nc1ccc(-c2cccs2)cc1NC(=O)c1ccc2c(c1)cc(C1CC1)n2CCN1CCOCC1 [ACY-1035]
- Fold change vs veh, CNEP1R1: 1.08
